From patent US8569298B2, “Pyridine compounds” (Astrazeneca AB, priority 2008, dated 2013)

Target: T1, FAK enzyme (6 His tagged kinase domain, GenBank NP—722560) (Homo sapiens, UniProt Q05397)
T1 construct: 6 His; made in house; host or cells: insect cell culture infected with baculovirus
Assay: In vitro enzyme assay (a): sandwich ELISA of FAK tyrosine kinase activity on polyGAT peptide, TMB colorimetric endpoint
Assay type: biochemical
Settings: in vitro Enzyme Assay test (a); ATP at Km; geometric mean of n > 1 measurements, values marked * tested once
In short: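 Recombinant His-tagged FAK kinase domain (baculovirus/insect cells) phosphorylated plate-coated polyGAT with ATP at Km, MgCl2/MnCl2, HEPES pH 7.4, 25 min at room temperature before EDTA stop. Phosphotyrosine detected by HRP-4G10 antibody and TMB absorbance at 450 nm; IC50 from 12-point curve anchored to DMSO and staurosporine controls.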

T1 sequence (Q05397 422-680 limits assumed): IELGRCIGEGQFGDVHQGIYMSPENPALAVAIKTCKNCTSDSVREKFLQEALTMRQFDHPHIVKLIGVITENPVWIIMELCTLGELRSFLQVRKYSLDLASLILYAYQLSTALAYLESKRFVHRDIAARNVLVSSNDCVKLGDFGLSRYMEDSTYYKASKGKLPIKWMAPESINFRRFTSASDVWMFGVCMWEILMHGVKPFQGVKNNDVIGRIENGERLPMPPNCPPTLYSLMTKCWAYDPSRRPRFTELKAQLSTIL

| IC50 [nM] | Structure (SMILES) |
| --- | --- |
| 12 | CONC(=O)c1cc(F)ccc1Nc1cc(Nc2cc(C)nn2C)ncc1C(F)(F)F [Example 16.01, 2-[[2-[(2,5-dimethylpyrazol-3-yl)amino]-5-(trifluoromethyl)-4-pyridyl]amino]-5-fluoro-N-methoxy-benzamide] |
| 6 | CONC(=O)c1cc(F)ccc1Nc1cc(Nc2cn(C)nc2C)ncc1C(F)(F)F [Example 16.02, 2-[[2-[(1,3-dimethylpyrazol-4-yl)amino]-5-(trifluoromethyl)-4-pyridyl]amino]-5-fluoro-N-methoxy-benzamide] |
